Laboratory results from US20250215002A1, “SOLID FORMS OF TYK2 INHIBITORS AND METHODS OF USE” (Takeda Pharmaceutical Company Limited, priority 2022, published 2025).
Entries after “also recorded” stand apart in the source; their conditions may differ.

Experiments:
Assay type in all cases: physicochemical
[1] = Relative humidity stressing (~90% RH), solid form by XRPD; settings: RT
Description: Select materials were transferred to a vial, which was then uncapped and placed inside ajar containing a saturated aqueous barium chloride solution for ˜90% RH in the headspace (See, Nyqvist, H. E., Saturated Salt Solutions for Maintaining Specified Relative Humidities, Int. J. Pharm. Technol. Prod. Manuf 1983, 4, 47-48, which is incorporated by reference in its entirety). Jars were stored at the stated temperatures.
XRPD patterns were collected with a PANalytical X'Pert PRO MPD or a PANalytical Empyrean diffractometer using an incident beam of Cu radiation produced using a long, fine-focus source. An elliptically graded multilayer mirror was used to focus Cu Kα X-rays through the specimen and onto the detector. Prior to the analysis, a silicon specimen (NIST SRM 640e) was analyzed to verify the observed position of the Si 111 peak is consistent with the NIST-certified position. A specimen of the sample was sandwiched between 3-μm-thick films and analyzed in transmission geometry. A beam-stop, short antiscatter extension, and antiscatter knife edge were used to minimize the background generated by air. Soller slits for the incident and diffracted beams were used to minimize broadening and asymmetry from axial divergence. Diffraction patterns were collected using a scanning position-sensitive detector (X'Celerator) located 240 mm from the specimen and Data Collector software v. […]

[2] = Dynamic vapor sorption (DVS) moisture sorption/desorption; settings: for Hygroscopicity (description): DVS 5-95% RH
Experimental: Moisture sorption/desorption data were collected on a Surface Measurement System DVS Intrinsic instrument. The samples were not dried prior to analysis. Sorption and desorption data were collected over a range from 5% to 95% RH in 10% RH increments under a nitrogen purge. The equilibrium criteria used for the analyses were 0.001 dm/dt weight change in 5 minutes with a minimum step time of 30 minutes and maximum equilibration time of 180 minutes with a 3-minute data logging interval. Data were not corrected for the initial moisture content of the samples.

[3] = Heating/desolvation experiments (TGA), recovered solids by XRPD
Experimental: TG analysis was performed using a Mettler-Toledo TGA/DSC3+ analyzer. Temperature calibration was performed using calcium oxalate, indium, tin, and zinc. The sample was placed in an aluminum pan. The pan was hermetically sealed, the lid pierced, then inserted into the TG furnace. A weighed aluminum pan configured as the sample pan was placed on the reference platform. The furnace was heated under nitrogen. Samples were analyzed from 25° C. to 350° C. at 10° C./min. The TGA/DSC3+ instrument was also used for select heating/desolvation experiments, in which solids were heated as described to a given temperature, then recovered and analyzed by XRPD.

[4] = Stable form screen slurries, resulting solid form by XRPD
Description: Early in the study, slurries were set up for the stable form screen at RT (Table 5, infra). In these experiments, solids of the as-received mixture of Form A+minor Material B were combined with given solvent systems at a solid loading that allowed for undissolved solids to remain, and the mixtures were stirred at ambient conditions. […] Two slurries were selected for isolation at that time to confirm the solid form and chemical composition, while the remaining slurries were covered with foil as a precaution. The slurry in THF, which was observed as a green suspension (darker than many of the other slurries), caused conversion to a new crystalline form, designated as Form C.
Additional slurries were set up at elevated temperatures (˜60° C. and ˜80° C.) and sub-ambient temperatures (2 to 8° C.) as well. […]
XRPD patterns were collected with a PANalytical X'Pert PRO MPD or a PANalytical Empyrean diffractometer using an incident beam of Cu radiation produced using a long, fine-focus source. […] Prior to the analysis, a silicon specimen (NIST SRM 640e) was analyzed to verify the observed position of the Si 111 peak is consistent with the NIST-certified position. A specimen of the sample was sandwiched between 3-μm-thick films and analyzed in transmission geometry. […]

[5] = Slurries of Form C at high water activity, resulting form by XRPD; settings: 1 d
Experimental: In addition to the slurries starting with Form A, two slurries of Form C were set up at high water activity conditions to study possible conversion to a hydrate (Table 9, supra). THF/water 50:50 (aw ˜1) and neat water (aw 1) were used.
Suspensions were prepared by adding enough solids to a given solvent at the stated conditions so that undissolved solids were present. The mixture was then agitated (typically by stirring or oscillation) in a sealed vial at a given temperature for an extended period of time. The solids were isolated as described above.

Question: Which “XRPD Result after RH stress” value ([1]; 6 d) does the source give for `CNc1cc(Nc2cccn(-c3ccccn3)c2=O)nc2c(C(=O)N[C@@H]3CC[C@H]3OC)cnn12` [Form A] here?
Answer: The value was “still consisting of Form A”.

Question: And the “Hygroscopicity (description)” value [2]?
Answer: The value was “significant hygroscopicity”.

Question: What about the “DVS weight gain 5-95% RH” value ([2]; sorption 5-95% RH) of the same molecule?
Answer: The value was 4.58%.

Question: What about the “XRPD Result after heating” value ([3]; heat to 150° C. (TGA)) of the same molecule?
Answer: Its value is “Full conversion to Form C; also recorded: converted to Form C upon”.

Question: What about the “Critical water activity (aw) between Form A and Form C” value ([4]; RT, hydrate Form A versus anhydrous Form C) of the same molecule?
Answer: The value was 0.69-0.82.

Question: With `CNc1cc(Nc2cccn(-c3ccccn3)c2=O)nc2c(C(=O)N[C@@H]3CC[C@H]3OC)cnn12` [Form C] as the molecule, how does the “XRPD Result after RH stress” value ([1]; 11 d) read?
Answer: The value was “consistent with Form C; also recorded: did not readily convert to a hydrate”.

Question: What about the “DVS weight change at 5% RH” value ([2]; 5% RH) of the same molecule?
Answer: The value was 0.00% weight change at 5% RH.

Question: And the “Hygroscopicity (description)” value [2]?
Answer: Its value is “limited hygroscopicity”.

Question: And the “post-DVS XRPD (solid form after DVS)” value ([2]; after sorption/desorption cycle 5-95-5% RH)?
Answer: The value was “consistent with Form C”.

Question: What about the “DVS weight loss 95-5% RH” value ([2]; desorption 95-5% RH) of the same molecule?
Answer: Its value is 1.80% weight loss 95-5% RH.

Question: What about the “DVS weight gain 5-95% RH” value ([2]; sorption 5-95% RH) of the same molecule?
Answer: The value was 1.75%.

Question: What about the “DVS weight gain 5-95% RH, equivalent moles of water” value ([2]; sorption 5-95% RH) of the same molecule?
Answer: Its value is about 0.5 mol.

Question: And the “XRPD Result after heating” value ([3]; heat to 270° C., cool to 40° C., heat to 200° C. (TGA))?
Answer: The value was “Material D”.

Question: What about the “Thermodynamic stability of the form (description)” value ([4]; between 2° C. and 80° C.) of the same molecule?
Answer: The value was “likely thermodynamically stable anhydrous/non-solvated form”.

Question: And the “XRPD Result after slurry” value ([5]; slurry in THF/water 50:50 (aw ~1))?
Answer: The value was “Full conversion to Form A”.

Question: And the “XRPD Result after slurry” value ([5]; slurry in water (aw 1))?
Answer: The value was “no form conversion”.
